{"source": "patent US20150329558A1", "about": "“FUSED HETEROCYCLIC COMPOUNDS AS ION CHANNEL MODULATORS” (Gilead Sciences, Inc., priority 2011, published 2015)", "data": [{"biological_target": "wild-type human cardiac sodium channel, hNav1.5 (late INa) (Homo sapiens, UniProt Q14524)", "sequence (Q14524 whole entry)": "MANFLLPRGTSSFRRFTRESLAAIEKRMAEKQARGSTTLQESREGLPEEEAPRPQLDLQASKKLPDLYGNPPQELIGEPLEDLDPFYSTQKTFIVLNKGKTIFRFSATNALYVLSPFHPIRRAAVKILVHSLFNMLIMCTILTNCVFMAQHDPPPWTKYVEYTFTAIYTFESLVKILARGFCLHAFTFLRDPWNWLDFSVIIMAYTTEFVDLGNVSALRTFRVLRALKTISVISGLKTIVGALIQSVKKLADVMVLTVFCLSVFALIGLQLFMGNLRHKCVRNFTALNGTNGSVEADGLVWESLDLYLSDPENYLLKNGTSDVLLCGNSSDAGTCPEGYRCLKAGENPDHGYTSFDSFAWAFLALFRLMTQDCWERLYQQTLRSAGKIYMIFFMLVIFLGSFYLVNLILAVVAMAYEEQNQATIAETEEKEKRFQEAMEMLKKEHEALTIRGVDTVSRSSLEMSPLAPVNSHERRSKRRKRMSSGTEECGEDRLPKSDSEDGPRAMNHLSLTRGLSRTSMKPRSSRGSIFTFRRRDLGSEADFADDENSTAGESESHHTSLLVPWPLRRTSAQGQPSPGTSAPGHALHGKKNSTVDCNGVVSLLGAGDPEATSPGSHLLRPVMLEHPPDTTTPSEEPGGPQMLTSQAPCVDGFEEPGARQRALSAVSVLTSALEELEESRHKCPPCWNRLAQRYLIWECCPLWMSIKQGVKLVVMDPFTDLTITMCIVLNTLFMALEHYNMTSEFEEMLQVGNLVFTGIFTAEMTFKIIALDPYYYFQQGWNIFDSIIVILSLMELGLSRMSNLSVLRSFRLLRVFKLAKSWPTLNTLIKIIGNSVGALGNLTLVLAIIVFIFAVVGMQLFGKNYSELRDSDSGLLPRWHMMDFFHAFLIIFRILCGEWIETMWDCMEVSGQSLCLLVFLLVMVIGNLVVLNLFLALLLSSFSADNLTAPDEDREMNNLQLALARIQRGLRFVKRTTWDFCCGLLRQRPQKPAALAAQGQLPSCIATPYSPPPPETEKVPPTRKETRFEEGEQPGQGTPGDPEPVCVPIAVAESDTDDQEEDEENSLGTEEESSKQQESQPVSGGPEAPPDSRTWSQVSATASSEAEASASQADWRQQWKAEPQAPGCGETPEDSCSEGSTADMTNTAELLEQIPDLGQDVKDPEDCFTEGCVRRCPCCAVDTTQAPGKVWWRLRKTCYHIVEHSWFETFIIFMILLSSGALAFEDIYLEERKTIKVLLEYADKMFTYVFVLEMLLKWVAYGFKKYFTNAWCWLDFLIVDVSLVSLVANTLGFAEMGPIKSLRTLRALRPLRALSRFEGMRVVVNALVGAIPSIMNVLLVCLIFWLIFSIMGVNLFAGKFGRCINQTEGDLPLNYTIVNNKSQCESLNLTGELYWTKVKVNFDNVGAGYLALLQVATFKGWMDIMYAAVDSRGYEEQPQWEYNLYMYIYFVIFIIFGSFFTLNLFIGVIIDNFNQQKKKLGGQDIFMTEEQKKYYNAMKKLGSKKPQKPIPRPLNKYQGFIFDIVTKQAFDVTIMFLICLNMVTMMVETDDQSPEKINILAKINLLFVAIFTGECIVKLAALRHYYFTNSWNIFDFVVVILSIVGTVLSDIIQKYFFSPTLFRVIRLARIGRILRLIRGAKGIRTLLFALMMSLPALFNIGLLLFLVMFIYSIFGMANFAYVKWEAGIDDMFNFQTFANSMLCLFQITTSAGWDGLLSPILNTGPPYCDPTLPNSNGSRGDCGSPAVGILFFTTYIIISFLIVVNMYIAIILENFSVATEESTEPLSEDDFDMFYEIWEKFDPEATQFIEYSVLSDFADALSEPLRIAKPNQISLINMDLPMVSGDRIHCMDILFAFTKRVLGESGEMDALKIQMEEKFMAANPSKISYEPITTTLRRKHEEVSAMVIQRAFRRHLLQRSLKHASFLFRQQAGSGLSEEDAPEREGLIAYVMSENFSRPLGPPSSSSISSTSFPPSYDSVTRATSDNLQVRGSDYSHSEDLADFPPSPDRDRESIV", "test": "Late INa screening assay (QPatch whole cell patch clamp)", "type": "cell-based", "conditions": "percent block of late INa, compound at 1 μM, 10 μM Tefluthrin, HEK293 hNav1.5; read-out: Late INa 1 μM", "protocol": "The late sodium current (Late INa) and peak sodium current (Peak INa) assays are performed on an automated electrophysiology platform, QPatch 16× (Sophion Bioscience, Copenhagen, Denmark), which uses the whole cell patch clamp technique to measure currents through the cell membrane of up to 16 cells at a time. The assay uses an HEK293 (human embryonic kidney) cell line heterologously expressing the wild-type human cardiac sodium channel, hNav1.5, purchased from Millipore (Billerica, Mass.). No beta subunits were coexpressed with the Na channel alpha subunit. Cells are maintained with standard tissue culture procedures and stable channel expression is maintained with 400 μg/mL Geneticin in the culture medium. […] Experiments are carried out at 23-25° C. For both the Late INa and Peak INa assays, series resistance compensation is set to 100% and series resistance and whole-cell compensation are performed automatically. Currents are digitized at 25 kHz and low-pass filtered at 12 kHz and 10 kHz for the late and peak INa assays, respectively. Currents through open sodium channels are automatically recorded and stored in the Sophion Bioscience Oracle database (Sophion Bioscience, Copehagen, Denmark). Analysis is performed using QPatch Assay and database software and data are compiled in Excel. Compound stocks are routinely made by the Gilead Sample Bank in plastic vials to 10 mM in dimethyl sulfoxide (DMSO). In some cases, when compounds are not soluble in DMSO, they are made in 100% ethanol. Stocks are sonicated as necessary. […] The intracellular solution used to perfuse the inside of the cells for both the Late INa and Peak INa assays contains: 120 mM CsF, 20 mM CsCl, 5 mM EGTA, 5 mM HEPES and pH adjusted to 7.4 with CsOH. Compounds are diluted in extracellular solution to 1 μM in glass vials and then transferred to glass well plates before robotic addition to the cells. […] For the Late INa assay, sodium channels are activated every 10 seconds (0.1 Hz) by depolarizing the cell membrane to −20 mV for 250 milliseconds (ms) from a holding potential of −120 mV. In response to a −20 mV voltage step, typical hNav1.5 sodium currents activate rapidly to a peak negative current and then inactivate nearly completely within 3-4 ms. All compounds were tested to determine their activity in blocking the late sodium current. Late INa was generated by adding 10 μM Tefluthrin (pyrethroid) to the extracellular solution while recording Na currents. To confirm the block of late INa observed using the automated screening method, a second late INa enhancer (ATX-II) and the manual patch clamp method were used. ATX-II and tefluthrin occupy distinct, non-overlapping binding sites and modify Na^+ channel function differently to increase late INa. […] For the purposes of the screening, late INa is defined as the mean current between 225 ms and 250 ms after stepping to −20 mV to activate Na channels. […] Results are reported as percent block of late INa.", "units": {"inhibition at 1 µM": "%"}, "values": [{"smiles": "Cn1cncc1C(=O)N1CCc2ccc(-c3ccc(C(F)(F)F)cc3)cc2C1", "note": "[IX-56, (1-methyl-1H-imidazol-5-yl)(7-(4-(trifluoromethyl)phenyl)-3,4-dihydroisoquinolin-2(1H)-yl)methanone]", "inhibition at 1 µM": 28}, {"smiles": "Cc1nn(C)cc1C(=O)N1CCc2ccc(-c3ccc(C(F)(F)F)cc3)cc2C1", "note": "[IX-28, (1,3-dimethyl-1H-pyrazol-4-yl)(7-(4-(trifluoromethyl)phenyl)-3,4-dihydroisoquinolin-2(1H)-yl)methanone]", "inhibition at 1 µM": 24}, {"smiles": "O=c1c2cc(-c3ccc(OC(F)(F)F)cc3)ccc2nnn1C1CCN(c2ncccn2)CC1", "note": "[II-39, 3-(1-(pyrimidin-2-yl)piperidin-4-yl)-6-(4-(trifluoromethoxy)phenyl)benzo[d][1,2,3]triazin-4(3H)-one]", "inhibition at 1 µM": 16}, {"smiles": "Cn1cnc(S(=O)(=O)N2CCc3ccc(-c4ccc(C(F)(F)F)cc4)cc3C2)c1", "note": "[IX-98, 2-(1-methyl-1H-imidazol-4-ylsulfonyl)-7-(4-(trifluoromethyl)phenyl)-1,2,3,4-tetrahydroisoquinoline]", "inhibition at 1 µM": 27}, {"smiles": "O=C(N1CCc2ccc(-c3ccc(C(F)(F)F)cc3)cc2C1)N1CC(CO)C1", "note": "[IX-113, (3-(hydroxymethyl)azetidin-1-yl)(7-(4-(trifluoromethyl)phenyl)-3,4-dihydroisoquinolin-2(1H)-yl)methanone]", "inhibition at 1 µM": 17}, {"smiles": "O=C(N1CCc2ccc(-c3ccc(C(F)(F)F)cc3)cc2C1)N1CC(F)(F)C1", "note": "[IX-92, (3,3-difluoroazetidin-1-yl)(7-(4-(trifluoromethyl)phenyl)-3,4-dihydroisoquinolin-2(1H)-yl)methanone]", "inhibition at 1 µM": 17}, {"smiles": "Cc1nc(Cn2nnc3ccc(-c4ccc(OCC(F)(F)F)nc4)cc3c2=O)no1", "note": "[Compound V-2, 3-((5-methyl-1,2,4-oxadiazol-3-yl)methyl)-6-(6-(2,2,2-trifluoroethoxy)pyridin-3-yl)benzo[d][1,2,3]triazin-4(3H)-one]", "inhibition at 1 µM": 17}, {"smiles": "CC1(O)CN(C(=O)N2CCc3ccc(-c4ccc(C(F)(F)F)cc4)cc3C2)C1", "note": "[IX-112, (3-hydroxy-3-methylazetidin-1-yl)(7-(4-(trifluoromethyl)phenyl)-3,4-dihydroisoquinolin-2(1H)-yl)methanone]", "inhibition at 1 µM": 18}, {"smiles": "O=C(N1CCCC1)N1CCc2ccc(-c3ccc(OC(F)(F)F)cc3)cc2C1", "note": "[IX-122, pyrrolidin-1-yl(7-(4-(trifluoromethoxy)phenyl)-3,4-dihydroisoquinolin-2(1H)-yl)methanone]", "inhibition at 1 µM": 36}, {"smiles": "O=c1c2cc(-c3ccc(OC(F)(F)F)cc3)ccc2nnn1Cn1nnnc1-c1ccccc1", "note": "[II-21, 3-((5-phenyl-1H-tetrazol-1-yl)methyl)-6-(4-(trifluoromethoxy)phenyl)benzo[d][1,2,3]triazin-4(3H)-one]", "inhibition at 1 µM": 70}, {"smiles": "O=C1c2cc(-c3ccc(C(F)(F)F)cc3F)ccc2OCN1Cc1ncccn1", "note": "[VIII-18, 6-(2-fluoro-4-(trifluoromethyl)phenyl)-3-(pyrimidin-2-ylmethyl)-2H-benzo[e][1,3]oxazin-4(3H)-one]", "inhibition at 1 µM": 54}, {"smiles": "O=c1c2cc(-c3ccc(OC(F)(F)F)cc3)ccc2nnn1C1CC1", "note": "[II-22, 3-cyclopropyl-6-(4-(trifluoromethoxy)phenyl)benzo[d][1,2,3]triazin-4(3H)-one]", "inhibition at 1 µM": 21}, {"smiles": "CC(c1nc(C2CC2)no1)n1nnc2ccc(-c3ccc(OC(F)(F)F)cc3)cc2c1=O", "note": "(stereo not shown) [II-79, 3-(1-(3-cyclopropyl-1,2,4-oxadiazol-5-yl)ethyl)-6-(4-(trifluoromethoxy)phenyl)benzo[d][1,2,3]triazin-4(3H)-one]", "inhibition at 1 µM": 54}, {"smiles": "O=c1c2cc(-c3ccc(OC(F)(F)F)cc3)ccc2cnn1CCn1cncn1", "note": "[III-26, 2-(2-(1H-1,2,4-triazol-1-yl)ethyl)-7-(4-(trifluoromethoxy)phenyl)phthalazin-1 (2H)-one]", "inhibition at 1 µM": 26}, {"smiles": "CC1(C)Oc2ccc(-c3ccc(OC(F)(F)F)cc3)cc2C(=O)N1Cc1ccccn1", "note": "[VIII-13, 2,2-dimethyl-3-(pyridin-2-ylmethyl)-6-(4-(trifluoromethoxy)phenyl)-2H-benzo[e][1,3]oxazin-4(3H)-one]", "inhibition at 1 µM": 20}, {"smiles": "O=C(c1[nH]cnc1F)N1CCc2ccc(-c3ccc(C(F)(F)F)cc3)cc2C1", "note": "[IX-59, (4-fluoro-1H-imidazol-5-yl)(7-(4-(trifluoromethyl)phenyl)-3,4-dihydroisoquinolin-2(1H)-yl)methanone]", "inhibition at 1 µM": 17}, {"smiles": "O=C1c2cc(-c3ccc(C(F)(F)F)cc3F)ccc2OCN1Cc1ccccc1", "note": "[VIII-22, 3-benzyl-6-(2-fluoro-4-(trifluoromethyl)phenyl)-2H-benzo[e][1,3]oxazin-4(3H)-one]", "inhibition at 1 µM": 45}, {"smiles": "O=C(Nc1ccccc1)N1CCc2ccc(-c3ccc(C(F)(F)F)cc3)cc2C1", "note": "[IX-42, N-phenyl-7-(4-(trifluoromethyl)phenyl)-3,4-dihydroisoquinoline-2(1H)-carboxamide]", "inhibition at 1 µM": 25}, {"smiles": "O=C(N1CCc2ccc(-c3ccc(C(F)(F)F)cc3)cc2C1)N1CC(Oc2cccnc2)C1", "note": "[IX-93, (3-(pyridin-3-yloxy)azetidin-1-yl)(7-(4-(trifluoromethyl)phenyl)-3,4-dihydroisoquinolin-2(1H)-yl)methanone]", "inhibition at 1 µM": 15}, {"smiles": "O=c1c2cc(-c3ccc(OC(F)(F)F)cc3)ccc2cnn1CCc1ccccc1", "note": "[III-8, 2-phenethyl-7-(4-(trifluoromethoxy)phenyl)phthalazin-1(2H)-one]", "inhibition at 1 µM": 19}, {"smiles": "O=c1c2cc(-c3ccc(OC(F)(F)F)cc3)ccc2cnn1Cc1cc(-c2ccccn2)on1", "note": "[III-41, 2-((5-(pyridin-2-yl)isoxazol-3-yl)methyl)-7-(4-(trifluoromethoxy)phenyl)phthalazin-1 (2H)-one]", "inhibition at 1 µM": 24}, {"smiles": "O=C(c1cnnn1-c1ccccc1)N1CCc2ccc(-c3ccc(C(F)(F)F)cc3)cc2C1", "note": "[IX-116, (1-phenyl-1H-1,2,3-triazol-5-yl)(7-(4-(trifluoromethyl)phenyl)-3,4-dihydroisoquinolin-2(1H)-yl)methanone]", "inhibition at 1 µM": 29}, {"smiles": "O=C(N1CCc2ccc(-c3ccc(C(F)(F)F)cc3)cc2C1)N1CC[C@@H](CO)C1", "note": "[IX-101, (R)-(3-(hydroxymethyl)pyrrolidin-1-yl)(7-(4-(trifluoromethyl)phenyl)-3,4-dihydroisoquinolin-2(1H)-yl)methanone]", "inhibition at 1 µM": 15}, {"smiles": "N#CC1(n2nnc3ccc(-c4ccc(OC(F)(F)F)cc4)cc3c2=O)CC1", "note": "[II-33, 1-(4-oxo-6-(4-(trifluoromethoxy)phenyl)benzo[d][1,2,3]triazin-3 (4H)-yl)cyclopropanecarbonitrile]", "inhibition at 1 µM": 26}, {"smiles": "C[C@@H]1CC[C@H](C)N1C(=O)N1CCc2ccc(-c3ccc(C(F)(F)F)cc3)cc2C1", "note": "[IX-106]", "inhibition at 1 µM": 21}, {"smiles": "O=C(NC1CC1)N1CCc2ccc(-c3ccc(C(F)(F)F)cc3)cc2C1", "note": "[IX-44, N-cyclopropyl-7-(4-(trifluoromethyl)phenyl)-3,4-dihydroisoquinoline-2(1H)-carboxamide]", "inhibition at 1 µM": 27}, {"smiles": "O=C(c1ncccn1)N1CCc2ccc(-c3ccc(C(F)(F)F)cc3F)cc2C1", "note": "[IX-22, (7-(2-fluoro-4-(trifluoromethyl)phenyl)-3,4-dihydroisoquinolin-2(1H)-yl)(pyrimidin-2-yl)methanone]", "inhibition at 1 µM": 29}, {"smiles": "O=c1c2cc(-c3ccc(OC(F)(F)F)cc3)ccc2cnn1CCn1cc(Br)cn1", "note": "[III-31, 2-(2-(4-bromo-1H-pyrazol-1-yl)ethyl)-7-(4-(trifluoromethoxy)phenyl)phthalazin-1 (2H)-one]", "inhibition at 1 µM": 27}, {"smiles": "O=C(c1ncccn1)N1CCc2ccc(-c3ccc(Cl)cc3F)cc2C1", "note": "[IX-23, (7-(4-chloro-2-fluorophenyl)-3,4-dihydroisoquinolin-2(1H)-yl)(pyrimidin-2-yl)methanone]", "inhibition at 1 µM": 27}, {"smiles": "O=c1c2cc(-c3ccc(C(F)(F)F)nc3)ccc2nnn1CCOc1ncccn1", "note": "[Compound V-11, 3-(2-(pyrimidin-2-yloxy)ethyl)-6-(6-(trifluoromethyl)pyridin-3-yl)benzo[d][1,2,3]triazin-4(3H)-one]", "inhibition at 1 µM": 22}, {"smiles": "O=c1c2cc(-c3ccc(OC(F)(F)F)cc3)ccc2nnn1OCc1cccnc1", "note": "[II-59, 3-(pyridin-3-ylmethoxy)-6-(4-(trifluoromethoxy)phenyl)benzo[d][1,2,3]triazin-4(3H)-one]", "inhibition at 1 µM": 22}]}]}
